# Data from US7928140B2, “Benzothiazole PI3 kinase modulators for cancer treatment” (Amgen Inc., priority 2007, dated 2011).
# pIC50: −log10 of the molar value.
# Experiments:
# [1] = target: T1, PI3K β (Homo sapiens, UniProt P42338); test: In vitro PI3 kinase enzyme assay (beta), ATP loss, bioluminescence; assay type: biochemical; details: read-out: PI3Kβ ATP loss IC50;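 also: purified p110β/p85 heterodimer with PtdIns(4,5)P2 as acceptor, incubated at room temperature, leftover ATP read by luminescence, inhibition scaled to compound-free wells with and without enzyme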
# T1 construct: Full length p110 subunits of PI3K α, β and δ, N-terminally labeled with polyHis tag; polyHis (N); made in house; host or cells: Sf9 insect cells (baculovirus)
# T1 sequence (P42338 whole entry): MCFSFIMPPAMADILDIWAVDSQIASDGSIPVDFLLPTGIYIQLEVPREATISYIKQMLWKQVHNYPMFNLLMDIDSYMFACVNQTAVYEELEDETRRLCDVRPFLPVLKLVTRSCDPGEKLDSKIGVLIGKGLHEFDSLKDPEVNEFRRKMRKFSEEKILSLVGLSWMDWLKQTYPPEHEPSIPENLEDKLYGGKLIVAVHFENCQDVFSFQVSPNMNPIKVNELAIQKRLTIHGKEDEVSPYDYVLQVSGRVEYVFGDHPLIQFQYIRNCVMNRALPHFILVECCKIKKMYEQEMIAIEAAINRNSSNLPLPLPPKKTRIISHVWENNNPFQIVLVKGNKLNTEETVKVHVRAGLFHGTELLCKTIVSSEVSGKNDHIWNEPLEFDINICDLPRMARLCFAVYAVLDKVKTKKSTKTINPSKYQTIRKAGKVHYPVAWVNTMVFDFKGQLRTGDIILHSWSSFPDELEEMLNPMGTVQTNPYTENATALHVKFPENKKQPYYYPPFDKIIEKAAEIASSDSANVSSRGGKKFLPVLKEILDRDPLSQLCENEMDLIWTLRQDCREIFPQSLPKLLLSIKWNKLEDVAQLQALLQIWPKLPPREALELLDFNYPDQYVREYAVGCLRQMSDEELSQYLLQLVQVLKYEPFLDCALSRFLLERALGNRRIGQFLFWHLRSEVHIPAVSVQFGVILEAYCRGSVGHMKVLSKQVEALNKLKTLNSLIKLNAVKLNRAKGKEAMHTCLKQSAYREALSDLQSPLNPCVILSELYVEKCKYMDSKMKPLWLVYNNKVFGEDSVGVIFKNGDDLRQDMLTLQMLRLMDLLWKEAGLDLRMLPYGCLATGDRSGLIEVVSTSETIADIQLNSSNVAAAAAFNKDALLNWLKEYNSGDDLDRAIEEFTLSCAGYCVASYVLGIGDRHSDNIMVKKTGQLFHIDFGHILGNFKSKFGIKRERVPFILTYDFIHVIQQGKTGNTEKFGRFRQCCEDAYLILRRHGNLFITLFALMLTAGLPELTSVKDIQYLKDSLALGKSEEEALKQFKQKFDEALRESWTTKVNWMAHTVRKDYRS
# T1 sequence (P27986 whole entry partner): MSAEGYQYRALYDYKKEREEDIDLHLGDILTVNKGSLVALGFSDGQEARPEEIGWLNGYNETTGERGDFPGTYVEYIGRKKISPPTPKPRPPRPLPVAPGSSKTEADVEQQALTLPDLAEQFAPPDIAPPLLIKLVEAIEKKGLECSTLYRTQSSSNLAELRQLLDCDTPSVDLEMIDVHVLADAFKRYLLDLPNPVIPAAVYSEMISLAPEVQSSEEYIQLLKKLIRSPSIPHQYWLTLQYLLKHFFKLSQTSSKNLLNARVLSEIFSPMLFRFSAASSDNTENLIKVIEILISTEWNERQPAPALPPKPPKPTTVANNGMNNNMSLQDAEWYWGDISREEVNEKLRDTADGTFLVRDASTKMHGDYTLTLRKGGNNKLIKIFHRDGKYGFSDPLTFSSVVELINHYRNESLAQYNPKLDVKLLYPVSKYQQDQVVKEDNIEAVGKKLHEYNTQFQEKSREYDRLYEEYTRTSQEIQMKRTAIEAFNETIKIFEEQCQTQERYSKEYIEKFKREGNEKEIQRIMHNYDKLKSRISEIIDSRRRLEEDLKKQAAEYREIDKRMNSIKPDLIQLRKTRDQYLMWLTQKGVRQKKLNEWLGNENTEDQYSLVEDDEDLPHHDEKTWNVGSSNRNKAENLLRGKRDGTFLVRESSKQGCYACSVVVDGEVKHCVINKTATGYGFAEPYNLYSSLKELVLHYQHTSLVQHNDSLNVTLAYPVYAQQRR
# [2] = tested on: phosphorylation of Serine 473 in Akt, HCT 116 human colon carcinoma cells; test: Cell-based phospho-AKT Ser473 assay (MSD sandwich immunoassay, IGF-1 stimulated); details: Homo sapiens, HCT-116, HCT 116 cells; read-out: HCT 116 pAKT IC50
# Procedure: This assay determines the ability of test compounds to inhibit the phosphorylation of […] in Akt using a MSD based sandwich immunoassay (Meso Scale Detection, catalogue # N411CAB-1). […] Prior to the assay cells were detached from the culture flask with trypsin, and re-suspended in complete media to give a final concentration of 1.6×10^5 cells per ml. Aliquots (100 μl) of the HCT116 cell suspension were seeded into each well of a 96 well tissue culture plate (Corning Incorporated COSTAR, catalogue#3595) to give a final density of 16,000 cells per well. Cells were then incubated overnight at 37° C. The following day the cells were treated with serially diluted test compounds and incubated for 2 hours at 37° C. […] As a maximum response control, wells contained 0.5% DMSO in place of test compound. The plates were mixed at 700 rpm for 2 min to ensure even distribution of the test compound and incubated for 2 hours at 37° C. Cells were then stimulated with insulin-like growth factor 1 (Sigma, product #13769) at final concentration of 100 ng/ml for 15 minutes at 37° C. The media was then removed and the cells treated with 80 μl cell-lysis buffer (MSD) containing a cocktail of protease and phosphatase inhibitors for one hour at 4° C. […] The detection antibody was removed and plates were then washed four times with 200 μl per well of Tris wash buffer. An aliquot of 150 μl of diluted MSD read buffer was then applied to each well, and the electrochemiluminescent signal was measured using a MSD SECTORTM plate reader. This instrument measures the intensity of emitted light to determine a quantitative measure of phosphorylated Akt in each well. The dose-response data obtained with each compound were analyzed and the IC50 inhibition of Akt phosphorylation at Ser473 calculated.
# [3] = target: T2, PI3K α (Homo sapiens, UniProt P42336); test: In vitro PI3 kinase enzyme assay (alpha), ATP loss, bioluminescence; assay type: biochemical; details: read-out: PI3Kα ATP loss IC50;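 also: purified p110α/p85 heterodimer acting on PtdIns(4,5)P2 at room temperature, remaining ATP read by luminescence, inhibition scaled between compound-free wells with and without enzyme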
# T2 construct: Full length p110 subunits of PI3K α, β and δ, N-terminally labeled with polyHis tag; polyHis (N); made in house; host or cells: Sf9 insect cells (baculovirus)
# T2 sequence (P42336 whole entry, species assumed): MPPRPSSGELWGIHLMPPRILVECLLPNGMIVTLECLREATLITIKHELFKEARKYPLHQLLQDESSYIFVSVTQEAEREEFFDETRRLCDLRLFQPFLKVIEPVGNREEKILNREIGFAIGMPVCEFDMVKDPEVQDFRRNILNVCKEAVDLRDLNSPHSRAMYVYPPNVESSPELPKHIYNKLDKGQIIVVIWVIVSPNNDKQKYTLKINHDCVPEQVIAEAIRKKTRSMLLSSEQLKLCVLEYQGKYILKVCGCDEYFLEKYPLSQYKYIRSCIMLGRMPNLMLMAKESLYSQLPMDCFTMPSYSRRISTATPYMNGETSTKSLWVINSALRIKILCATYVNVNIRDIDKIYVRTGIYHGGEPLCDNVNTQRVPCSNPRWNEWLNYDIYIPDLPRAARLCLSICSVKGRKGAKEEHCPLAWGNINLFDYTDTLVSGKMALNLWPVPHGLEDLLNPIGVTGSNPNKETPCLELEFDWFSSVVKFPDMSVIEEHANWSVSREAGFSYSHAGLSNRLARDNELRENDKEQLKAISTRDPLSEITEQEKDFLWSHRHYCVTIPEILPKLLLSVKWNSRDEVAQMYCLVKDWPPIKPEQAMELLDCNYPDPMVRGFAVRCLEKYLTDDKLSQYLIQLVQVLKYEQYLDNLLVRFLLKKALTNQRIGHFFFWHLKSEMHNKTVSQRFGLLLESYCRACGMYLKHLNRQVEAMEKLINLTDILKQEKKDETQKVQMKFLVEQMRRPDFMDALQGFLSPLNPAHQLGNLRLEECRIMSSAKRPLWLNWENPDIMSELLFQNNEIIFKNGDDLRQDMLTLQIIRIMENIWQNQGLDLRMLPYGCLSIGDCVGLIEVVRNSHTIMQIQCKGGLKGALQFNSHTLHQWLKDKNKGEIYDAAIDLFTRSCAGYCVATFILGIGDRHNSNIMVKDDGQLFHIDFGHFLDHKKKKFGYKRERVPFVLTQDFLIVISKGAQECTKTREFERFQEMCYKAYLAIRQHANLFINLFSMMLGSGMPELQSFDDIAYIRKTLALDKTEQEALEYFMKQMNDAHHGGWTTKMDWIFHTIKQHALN
# T2 sequence (P27986 whole entry partner, species assumed): as the sequence (P27986 whole entry partner) above
# Procedure: Full length p110 subunits of PI3K α, β and δ, N-terminally labeled with polyHis tag, were co-expressed with p85 in baculovirus expression vectors in sf9 insect cells. P110/p85 heterodimers were purified by sequential Ni-NTA, Q-HP, and Superdex-100 chromatography. Purified α, β and δ isozymes were stored at −20° C. in 20 mM Tris, pH 8, 0.2M NaCl, 50% glycerol, 5 mM DTT, 2 mM Na cholate.
# PI3K enzyme assays (alpha, beta, delta and gamma) were performed in 25 mL with the above final concentrations of components in white polypropylene plates (Costar catalogue #3355). Phosphatidyl inositol phosphoacceptor, PtdIns(4,5)P2 (eg. P4508) was obtained from Echelon Biosciences. The ATPase activity of the alpha and gamma isozymes was not greatly stimulated by PtdIns(4,5)P2 under these conditions and was therefore omitted from the assay of these isozymes. Test compounds were dissolved in DMSO and diluted with three-fold serial dilutions. The compound in DMSO (1 μL) was added per test well, and the inhibition relative to reactions containing no compound, with and without enzyme was determined. After assay incubation at RT, the reaction was stopped and residual ATP determined by addition of an equal volume of a commercial ATP bioluminescence kit (Perkin Elmer EasyLite) according to the manufacturer's instructions, and detected using an Analyst GT luminometer.
pIC50 [1],pIC50 [2],pIC50 [3],Compound
8.06,7.90,–,"CC(=O)Nc1nc2ccc(-c3cnc(Cl)c(NS(=O)(=O)c4ccc(Cl)cc4)c3)cc2s1 [Example 180, N-(6-(6-chloro-5-(4-chlorophenylsulfonamido)pyridin-3-yl)benzo[d]thiazol-2-yl)acetamide]"
7.94,6.82,–,"Nc1nc2ccc(-c3cnc(Cl)c(NS(=O)(=O)c4ccc(F)cc4)c3)cc2s1 [Example 192, N-(5-(2-aminobenzo[d]thiazol-6-yl)-2-chloropyridin-3-yl)-4-fluorobenzenesulfonamide]"
5.10,< 4.40,–,"CC(=O)Nc1nc2ccc(-c3ccnc(OCc4ccc(F)cc4)n3)cc2s1 [Example 39, N-(6-(2-((4-fluorobenzyl)oxy)-4-pyrimidinyl)-1,3-benzothiazol-2-yl)acetamide]"
–,7.98,–,"CC(=O)Nc1nc2ccc(-c3cnc(Cl)c(NS(=O)(=O)c4ccc(F)cc4)c3)cc2s1 [Example 162, N-(6-(6-Chloro-5-(4-fluorophenylsulfonamido)pyridin-3-yl)benzo[d]thiazol-2-yl)acetamide]"
6.73,6.17,–,"CC(=O)Nc1nc2ccc(-c3ccnc(SCc4ccccc4)n3)cc2s1 [Example 19, N-(6-(2-(benzylsulfanyl)-4-pyrimidinyl)-1,3-benzothiazol-2-yl)acetamide]"
7.75,6.83,–,"COc1ccc(S(=O)(=O)Nc2cncc(-c3ccc4nc(NC(C)=O)sc4c3)n2)cc1 [Example 118, N-(6-(6-(((4-methoxyphenyl)sulfonyl)amino)-2-pyrazinyl)-1,3-benzothiazol-2-yl)acetamide]"
6.35,6.16,–,"CCN(c1nccc(-c2ccc3nc(NC(C)=O)sc3c2)n1)S(=O)(=O)c1ccc(OC)cc1 [Example 89, N-(6-(2-(N-Ethyl-4-methoxyphenylsulfonamido)pyrimidin-4-yl)benzo[d]thiazol-2-yl)acetamide]"
7.92,8.03,–,"COc1ccc(S(=O)(=O)Nc2cc(-c3ccc4nc(NC(C)=O)sc4c3)cnc2C)cc1 [Example 116, N-(6-(5-(((4-methoxyphenyl)sulfonyl)amino)-6-methyl-3-pyridinyl)-1,3-benzothiazol-2-yl)acetamide]"
8.16,8.29,–,"CC(=O)Nc1nc2ccc(-c3cnc(Cl)c(NS(=O)(=O)c4cccc(C(C)(C)C)c4)c3)cc2s1 [Example 173, N-(6-(5-(3-tert-butylphenylsulfonamido)-6-chloropyridin-3-yl)benzo[d]thiazol-2-yl)acetamide]"
7.66,7.48,–,"COc1ccc(S(=O)(=O)Nc2cncc(-c3ccc4nc(NC(C)=O)sc4c3)c2)cc1 [Example 195, N-(6-(5-(4-methoxyphenylsulfonamido)pyridin-3-yl)benzo[d]thiazol-2-yl)acetamide]"
5.93,5.98,–,"CSc1nccc(-c2ccc3nc(NC(C)=O)sc3c2)n1 [Example 50, N-(6-(2-(methylsulfanyl)-4-pyrimidinyl)-1,3-benzothiazol-2-yl)acetamide]"
6.70,7.07,–,"CC(=O)Nc1nc2ccc(-c3cccc(N(C)S(=O)(=O)c4ccc(C)cc4)n3)cc2s1 [Example 74, N-(6-(6-(N,4-Dimethylphenylsulfonamido)pyridin-2-yl)benzo[d]thiazol-2-yl)acetamide]"
6.92,5.74,–,"CC(=O)Nc1nc2ccc(-c3ccnc(Sc4cccc(F)c4)n3)cc2s1 [Example 109, N-(6-(2-((3-fluorophenyl)sulfanyl)-4-pyrimidinyl)-1,3-benzothiazol-2-yl)acetamide]"
–,5.93,–,"CC(=O)Nc1nc2ccc(-c3ccc(Cl)nc3)cc2s1 [Example 297, N-(6-(6-chloropyridin-3-yl)benzo[d]thiazol-2-yl)acetamide]"
–,6.38,–,"CC(=O)Nc1nc2ccc(-c3cncc(O)c3)cc2s1 [Example 296, N-(6-(5-hydroxypyridin-3-yl)benzo[d]thiazol-2-yl)acetamide]"
–,6.44,–,"CC(=O)Nc1nc2ccc(-c3cncc(NC(C)(C)C)n3)cc2s1 [Example 227, N-(6-(6-(tert-butylamino)pyrazin-2-yl)benzo[d]thiazol-2-yl)acetamide]"

pIC50 [1],pIC50 [2],pIC50 [3],Compound
–,< 5.30,–,"CC(=O)Nc1nc2ccc(-c3cncc(OC[C@H]4CCC(=O)N4)c3)cc2s1 [Example 294, N-(6-(5-(((R)-5-oxopyrrolidin-2-yl)methoxy)pyridin-3-yl)benzo[d]thiazol-2-yl)acetamide]"
–,5.74,–,"COCC(=O)NCCOc1cncc(-c2ccc3nc(NC(C)=O)sc3c2)c1 [Example 298, N-(2-(5-(2-(N-actyl)aminobenzo[d]thiazol-6-yl)pyridin-3-yloxy)ethyl)-2-methoxyacetamide]"
4.51,–,4.41,"COc1ccc(S(=O)(=O)c2ncc(-c3ccc4nc(NC(C)=O)sc4c3)s2)cc1 [Example 61, N-(6-(2-(4-methoxyphenylsulfonyl)thiazol-5-yl)benzo[d]thiazol-2-yl)acetamide]"
4.88,–,5.59,"CC(=O)c1cncc(-c2ccc3ncsc3c2)c1 [Example 336, 1-(5-(1,3-benzothiazol-6-yl)-3-pyridinyl)ethanone]"
6.37,–,6.08,"COc1ccc(OC)c(Sc2nccc(-c3ccc4nc(NC(C)=O)sc4c3)n2)c1 [Example 158, N-(6-(2-((2,5-dimethoxyphenyl)sulfanyl)-4-pyrimidinyl)-1,3-benzothiazol-2-yl)acetamide]"
< 4.40,–,4.95,CC(=O)Nc1nc2ccc(-c3ccnc(OCCCN(C)C)n3)cc2s1 [Example 8]
5.57,–,5.37,"CC(C)(C)OC(=O)Nc1nc2ccc(-c3nnc(NCc4ccccc4)o3)cc2s1 [Example 169, tert-Butyl 6-(5-(benzylamino)-1,3,4-oxadiazol-2-yl)benzo[d]thiazol-2-ylcarbamate]"
4.72,–,5.56,"CC(=O)Nc1nc2ccc(-c3ccnc(N4CCOCC4)n3)cc2s1 [Example 160, N-(6-(2-(4-morpholinyl)-4-pyrimidinyl)-1,3-benzothiazol-2-yl)acetamide]"
< 4.40,–,5.18,"COc1ccc(-c2cccc3nc(NC(C)=O)sc23)cc1 [Example 95, N-(7-(4-Methoxyphenyl)benzo[d]thiazol-2-yl)acetamide]"
4.97,–,5.56,"CC(=O)Nc1nc2ccc(-c3ccnc(CCCc4ccccc4)n3)cc2s1 [Example 14, N-(6-(2-(3-phenylpropyl)-4-pyrimidinyl)-1,3-benzothiazol-2-yl)acetamide]"
6.27,–,7.63,"CC(=O)Nc1nc2ccc(-c3ccnc(Sc4cc(C)ccc4C)n3)cc2s1 [Example 123, N-(6-(2-((2,5-dimethylphenyl)sulfanyl)-4-pyrimidinyl)-1,3-benzothiazol-2-yl)acetamide]"
6.39,–,6.98,"COc1ccc(S(=O)(=O)Nc2cc(-c3ccc4nc(NCC5CCCCC5)sc4c3)cnc2Cl)cc1 [Example 306, N-(2-chloro-5-(2-((cyclohexylmethyl)amino)-1,3-benzothiazol-6-yl)-3-pyridinyl)-4-methoxybenzenesulfonamide]"
4.62,–,5.93,CC(=O)Nc1nc2ccc(-c3cncc(OCCN4CCC(F)(F)C4=O)c3)cc2s1 [Example 254]
5.11,–,4.57,"CC(C)(O)C(=O)Nc1nc2ccc(-c3ccnc(OCc4ccccc4)n3)cc2s1 [Example 55, N-(6-(2-(benzyloxy)-4-pyrimidinyl)-1,3-benzothiazol-2-yl)-2-hydroxy-2-methylpropanamide]"
4.72,–,5.55,"CC(=O)Nc1nc2ccc(-c3cncc(OCCN4CCOCC4)c3)cc2s1 [Example 230, N-(6-(5-(2-morpholinoethoxy)pyridin-3-yl)benzo[d]thiazol-2-yl)acetamide]"
5.41,–,6.03,"CC(=O)Nc1nc2ccc(-c3ccnc(N(C)S(=O)(=O)c4cn(C)cn4)n3)cc2s1 [Example 211, N-(6-(2-(N,1-dimethyl-1H-imidazole-4-sulfonamido)pyrimidin-4-yl)benzo[d]thiazol-2-yl)acetamide]"

Compound,pIC50 [1],pIC50 [2],pIC50 [3]
"CC(=O)Nc1nc2ccc(-c3cncc(N4CC5CCC(CC5)C4)n3)cc2s1 [Example 300, N-(6-(6-(3-aza-bicyclo[3.2.2]nonan-3-yl)pyrazin-2-yl)benzo[d]thiazol-2-yl)acetamide]",–,5.05,–
"CC(=O)Nc1nc2ccc(-c3cc(C)nc(N)n3)cc2s1 [Example 101, N-(6-(2-Amino-6-methylpyrimidin-4-yl)benzo[d]thiazol-2-yl)acetamide]",5.00,–,5.38
